From paper PMC2932787 (Journal of the American Society for Mass Spectrometry, 2010)
Like-named read-outs stand apart in the source and are kept apart here.

Key:
[1] = target: calcium-saturated calmodulin (CaM·4Ca^2+) (Homo sapiens, UniProt P0DP23)
[2] = target: calcium-saturated calmodulin (CaM·4Ca^2+) (Sus scrofa, UniProt F2Z5G3)
calmodulin [3] = settings: read-out: dissociation constant; 25°C, pH 7.3; fluorescence of dansylcalmodulin; ref [33]; cited from earlier work
calmodulin [4] = settings: read-out: dissociation constant; 4°C, pH 7.0; equilibrium dialysis; ref [35]; cited from earlier work
calmodulin [5] = settings: amino- and carboxy-terminal deletion peptides; ref [38]; cited from earlier work
[6] = target: Porcine calmodulin saturated with calcium (CaM·4Ca2+) (porcine); experiment: HDX-MS
[7] = target: Porcine calmodulin saturated with calcium (CaM·4Ca2+) (porcine); experiment: HDX-MS; remark: listed apart in the source
[8] = from ΔD1, corrected for 50% D2O

Sequence of β-endorphin (P01189 237-267): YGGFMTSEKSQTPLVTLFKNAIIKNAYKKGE

| Ka [6] [M⁻¹] | Kd [6] [µM] | Ka [7] [M⁻¹] | Kd [7] [µM] | Compound | backbone amide protons of CaM·4Ca^2+ that become protected on binding [1, 8] | ΔD1 (difference in deuterium uptake of the protein on binding) ([1]; traditional PLIMSTEX, protein mass readout, 50% D2O) | ΔD1 (difference in deuterium uptake between bound and unbound peptide) ([2]; dPLIMSTEX, peptide mass readout, 50% D2O) | backbone amides of the peptide protected upon binding to CaM·4Ca^2+ [2, 8] | Kd (calmodulin [3]) [µM] | Kd (calmodulin [4]) [µM] | domain responsible for inhibition of calmodulin function (calmodulin [5]) |
| --- | --- | --- | --- | --- | --- | --- | --- | --- | --- | --- | --- |
| – | – | – | – | CC[C@H](C)[C@H](NC(=O)[C@H](C)NC(=O)[C@H](CC(N)=O)NC(=O)[C@H](CCCCN)NC(=O)[C@H](Cc1ccccc1)NC(=O)[C@H](CC(C)C)NC(=O)[C@@H](NC(=O)[C@@H](NC(=O)[C@H](CC(C)C)NC(=O)[C@@H]1CCCN1C(=O)[C@@H](NC(=O)[C@H](CCC(N)=O)NC(=O)[C@H](CO)NC(=O)[C@H](CCCCN)NC(=O)[C@H](CCC(=O)O)NC(=O)[C@H](CO)NC(=O)[C@@H](NC(=O)[C@H](CCSC)NC(=O)[C@H](Cc1ccccc1)NC(=O)CNC(=O)CNC(=O)[C@@H](N)Cc1ccc(O)cc1)[C@@H](C)O)[C@@H](C)O)C(C)C)[C@@H](C)O)C(=O)N[C@H](C(=O)N[C@@H](CCCCN)C(=O)N[C@@H](CC(N)=O)C(=O)N[C@@H](C)C(=O)N[C@@H](Cc1ccc(O)cc1)C(=O)N[C@@H](CCCCN)C(=O)N[C@@H](CCCCN)C(=O)NCC(=O)N[C@@H](CCC(=O)O)C(=O)O)[C@@H](C)CC [β-endorphin] | approximately 30 | 15.0 | 3.96 ± 0.09 | at least eight | 1.9 to 3.8 | 2.5 to 4.6 | residues 14–25 |
| 220000 | 4.5 | 205000 | 4.9 | β-endorphin (from UniProt P01189 237-267) (peptide) | – | – | – | – | – | – | – |
